Results: PubChem BioAssay AID248 (DTP/NCI, 2004)
Where “and” joins values, the source holds several entries; their conditions need not be identical. Identical values can stand only once. Inconclusive results and toxic doses are left out. No stated cut-off is given here; in the data, active means T/C of 150% or more; inactive means T/C below 125%.

System: L1210 leukemia ip in BDF1 mice, survival T/C
Assay: NCI In Vivo Anticancer Drug Screen. Data for tumor model L1210 Leukemia (intraperitoneal) in B6D2F1 (BDF1) mice
Conditions: endpoint: mean survival time, higher = longer survival
How it was run: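 Ratio derived from survival: compound-dosed mice over vehicle-dosed mice, all bearing a transplantable tumor.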

[1] = dose: 100.0 mg/kg/injection, schedule: Q01DX001 (ip), vehicle: carboxymethylcellulose (CMC)
[2] = dose: 200.0 mg/kg/injection, schedule: Q01DX001 (ip), vehicle: carboxymethylcellulose (CMC)
[3] = dose: 50.0 mg/kg/injection, schedule: Q01DX001 (ip), vehicle: saline
[4] = dose: 100.0 mg/kg/injection, schedule: Q01DX001 (ip), vehicle: saline
[5] = dose: 200.0 mg/kg/injection, schedule: Q01DX001 (ip), vehicle: saline
[6] = dose: 400.0 mg/kg/injection, schedule: Q01DX001 (ip), vehicle: saline
[7] = dose: 100.0 mg/kg/injection, schedule: Q04DX003 (ip), vehicle: Klucel (hydroxypropylcellulose) (HPC)
[8] = dose: 100.0 mg/kg/injection, schedule: Q04DX003 (ip), vehicle: saline with Tween-80
[9] = dose: 200.0 mg/kg/injection, schedule: Q04DX003 (ip), vehicle: Klucel (hydroxypropylcellulose) (HPC)
[10] = dose: 200.0 mg/kg/injection, schedule: Q04DX003 (ip), vehicle: saline with Tween-80
[11] = dose: 400.0 mg/kg/injection, schedule: Q04DX003 (ip), vehicle: Klucel (hydroxypropylcellulose) (HPC)
[12] = dose: 400.0 mg/kg/injection, schedule: Q04DX003 (ip), vehicle: saline with Tween-80
[13] = dose: 100.0 mg/kg/injection, schedule: Q01DX001 (ip), vehicle: Klucel (hydroxypropylcellulose) (HPC)
[14] = dose: 200.0 mg/kg/injection, schedule: Q01DX001 (ip), vehicle: Klucel (hydroxypropylcellulose) (HPC)
[15] = dose: 400.0 mg/kg/injection, schedule: Q01DX001 (ip), vehicle: Klucel (hydroxypropylcellulose) (HPC)
[16] = dose: 50.0 mg/kg/injection, schedule: Q04DX003 (ip), vehicle: Klucel (hydroxypropylcellulose) (HPC)
[17] = dose: 100.0 mg/kg/injection, schedule: Q01DX009 (ip), vehicle: saline with Tween-80
[18] = dose: 200.0 mg/kg/injection, schedule: Q01DX009 (ip), vehicle: saline with Tween-80

Measured: T/C

CC(=O)OC(C)(/N=N/C(C)(OC(C)=O)c1ccc(Cl)cc1)c1ccc(Cl)cc1 (centres undefined)
inactive: dose: 25.0 mg/kg/injection, schedule: Q01DX009 (ip), vehicle: gum acacia 113 % of control | dose: 25.0 mg/kg/injection, schedule: Q04DX003 (ip), vehicle: gum acacia 98 % of control | dose: 50.0 mg/kg/injection, schedule: Q01DX009 (ip), vehicle: gum acacia 100 % of control | dose: 50.0 mg/kg/injection, schedule: Q04DX003 (ip), vehicle: gum acacia 98 % of control | dose: 100.0 mg/kg/injection, schedule: Q01DX001 (ip), vehicle: gum acacia 92 % of control | dose: 100.0 mg/kg/injection, schedule: Q01DX009 (ip), vehicle: gum acacia 94 % of control | dose: 100.0 mg/kg/injection, schedule: Q04DX003 (ip), vehicle: gum acacia 102 % of control

CCOC(=O)CC(=O)NC(C)(CCOCc1ccccc1)C(=O)OCC (centres undefined)
inactive: dose: 50.0 mg/kg/injection, schedule: Q01DX001 (ip), vehicle: carboxymethylcellulose (CMC) 101 % of control | [1] 103 % of control | [2] 110 % of control | dose: 400.0 mg/kg/injection, schedule: Q01DX001 (ip), vehicle: carboxymethylcellulose (CMC) 103 % of control

N=C(N)S/C=C(/F)C(F)(F)CBr
inactive: [3] 95 % of control | [4] 101 % of control | [5] 113 % of control | [6] 101 % of control

CCOC(=O)C12CCC(C(=O)O)(CC1)CC2
inactive: dose: 75.0 mg/kg/injection, schedule: Q04DX002 (ip), vehicle: Klucel (hydroxypropylcellulose) (HPC) 100 % of control | dose: 150.0 mg/kg/injection, schedule: Q04DX002 (ip), vehicle: Klucel (hydroxypropylcellulose) (HPC) 106 % of control | dose: 300.0 mg/kg/injection, schedule: Q04DX002 (ip), vehicle: Klucel (hydroxypropylcellulose) (HPC) 110 % of control

O=C(O)c1cc(Cc2c[nH]c(=O)[nH]c2=O)ccc1O
inactive: dose: 50.0 mg/kg/injection, schedule: Q01DX005 (ip), vehicle: water 109 % of control | dose: 100.0 mg/kg/injection, schedule: Q01DX005 (ip), vehicle: water 98 % of control | dose: 200.0 mg/kg/injection, schedule: Q01DX005 (ip), vehicle: water 102 % of control

Cc1ccc(NC(=O)NNC(=O)CCCC(=O)NNC(=O)Nc2ccc(C)cc2)cc1
inactive: [3] 96 % of control | [4] 102 % of control | [5] 96 % of control | [6] 96 % of control

[Cl][Cu][Cl]
inactive: dose: 3.13 mg/kg/injection, schedule: Q01DX009 (ip), vehicle: saline 100 % of control | dose: 6.25 mg/kg/injection, schedule: Q01DX009 (ip), vehicle: saline 95 % of control | dose: 6.25 mg/kg/injection, schedule: Q04DX003 (ip), vehicle: saline 102 % of control | dose: 12.5 mg/kg/injection, schedule: Q01DX009 (ip), vehicle: saline 90 % of control | dose: 12.5 mg/kg/injection, schedule: Q04DX003 (ip), vehicle: saline 107 % of control

NC(=S)Nc1cccnc1
inactive: dose: 25.0 mg/kg/injection, schedule: Q04DX002 (ip), vehicle: Klucel (hydroxypropylcellulose) (HPC) 91 % of control | dose: 50.0 mg/kg/injection, schedule: Q04DX002 (ip), vehicle: Klucel (hydroxypropylcellulose) (HPC) 91 % of control | dose: 100.0 mg/kg/injection, schedule: Q04DX002 (ip), vehicle: Klucel (hydroxypropylcellulose) (HPC) 97 % of control

CCC1C(CC)N1S(=O)(=O)c1ccccc1 (centres undefined)
inactive: dose: 100.0 mg/kg/injection, schedule: Q04DX002 (ip), vehicle: saline with Tween-80 100 % of control | dose: 200.0 mg/kg/injection, schedule: Q04DX002 (ip), vehicle: saline with Tween-80 103 % of control

Cc1c(C(=O)O)c(C)c([N+](=O)[O-])c(C)c1[N+](=O)[O-]
inactive: dose: 50.0 mg/kg/injection, schedule: Q04DX003 (ip), vehicle: saline with Tween-80 95 % of control | [7] 90 % of control | [8] 97 % of control | [9] 95 % of control | [10] 97 % of control | [11] 93 % of control

O=C1CCC2=C(CCCCCCCCCC2)N1c1ccccc1
inactive: [8] 105 % of control | [10] 105 % of control | [12] 94 % of control

CNC(=O)O/N=C/c1cccc(/C=N/OC(=O)NC)c1
inactive: [8] 97 % of control | [10] 97 % of control | [12] 103 % of control

CCCCCCCCCCCCCCCCS(=O)(=O)N/N=C/c1ccccc1O
inactive: [1] 95 % of control | [2] 98 % of control

COC(=O)C12CCC(=O)CC1(O)c1ccc(OC)cc1CC2 (centres undefined)
inactive: [13] 104 % of control | [14] 107 % of control | [15] 107 % of control

CCCCCCCCCCCCCCCCOc1ccc(S(=O)(=O)c2ccccc2)cc1[N+](=O)[O-]
inactive: [7] 91 % of control | [9] 94 % of control | dose: 400.0 mg/kg/injection, schedule: Q01DX009 (ip), vehicle: saline sonified 96 % of control | [11] 96 % of control

c1ccc(-c2ccc([Si](c3ccccc3)(c3ccccc3)c3ccc(-c4ccccc4)cc3)cc2)cc1
inactive: dose: 50.0 mg/kg/injection, schedule: Q01DX009 (ip), vehicle: Klucel (hydroxypropylcellulose) (HPC) 104 % of control | [16] 94 % of control | dose: 100.0 mg/kg/injection, schedule: Q01DX009 (ip), vehicle: Klucel (hydroxypropylcellulose) (HPC) 93 % of control | [7] 96 % of control | dose: 200.0 mg/kg/injection, schedule: Q01DX009 (ip), vehicle: Klucel (hydroxypropylcellulose) (HPC) 87 % of control | [9] 98 % of control

COC(=O)c1cc(=O)c2c(=O)n(Cc3ccccc3)c(=O)n(Cc3ccccc3)c2[nH]1
inactive: [13] 106 % of control | [14] 100 % of control | [15] 118 % of control

COC(=O)C1CN(S(=O)(=O)c2ccccc2)c2ccccc2N1S(=O)(=O)c1ccccc1 (centres undefined)
inactive: dose: 100.0 mg/kg/injection, schedule: Q04DX003 (ip), vehicle: acetone 95 % of control | dose: 200.0 mg/kg/injection, schedule: Q04DX003 (ip), vehicle: acetone 100 % of control | dose: 400.0 mg/kg/injection, schedule: Q04DX003 (ip), vehicle: acetone 94 % of control

Cc1ccc(S(=O)(=O)OC2CC(C(=O)O)N(S(=O)(=O)c3ccc(C)cc3)C2)cc1 (centres undefined)
inactive: [17] 104 % of control | [8] 98 % of control and 92 % of control | [18] 95 % of control | [10] 97 % of control and 101 % of control | [12] 96 % of control and 107 % of control

COc1ccc(/C=N/NC(=O)c2ccccc2Cl)cc1OC
inactive: dose: 50.0 mg/kg/injection, schedule: Q01DX009 (ip), vehicle: saline with Tween-80 102 % of control | [17] 91 % of control | [18] 88 % of control

O=C(O)CCSc1nc[nH]c1[N+](=O)[O-]
inactive: dose: 100.0 mg/kg/injection, schedule: Q01DX001 (ip), vehicle: saline with Tween-80 102 % of control | dose: 200.0 mg/kg/injection, schedule: Q01DX001 (ip), vehicle: saline with Tween-80 96 % of control | dose: 400.0 mg/kg/injection, schedule: Q01DX001 (ip), vehicle: saline with Tween-80 96 % of control

NC1CCCCC1.[O]=[Cr](=[O])([OH])[OH]
inactive: dose: 12.5 mg/kg/injection, schedule: Q01DX009 (ip), vehicle: saline sonified 100 % of control | dose: 25.0 mg/kg/injection, schedule: Q01DX009 (ip), vehicle: saline sonified 109 % of control | [16] 102 % of control | dose: 75.0 mg/kg/injection, schedule: Q01DX001 (ip), vehicle: saline 98 % of control

O=[N+]([O-])c1ccc(C2=NC(c3ccccc3)CO2)cc1 (centres undefined)
inactive: dose: 50.0 mg/kg/injection, schedule: Q01DX001 (ip), vehicle: Klucel (hydroxypropylcellulose) (HPC) 96 % of control | [13] 112 % of control | [14] 94 % of control

Cc1ccccc1N=Nc1c(O)n(-c2ccc(I)cc2)c(=S)n(-c2ccccc2)c1=O
inactive: dose: 37.5 mg/kg/injection, schedule: Q01DX001 (ip), vehicle: Klucel (hydroxypropylcellulose) (HPC) 103 % of control | dose: 75.0 mg/kg/injection, schedule: Q01DX001 (ip), vehicle: Klucel (hydroxypropylcellulose) (HPC) 113 % of control | dose: 150.0 mg/kg/injection, schedule: Q01DX001 (ip), vehicle: Klucel (hydroxypropylcellulose) (HPC) 105 % of control
